Assay results as given in US5942518A, “Water-soluble fluoroethylcamptothecin derivative and process for production thereof” (priority 1995, dated 1999).
Where a name gives a salt, the structure may show the parent alone.

Assays:
[1] = cited from earlier work
[2] = Toxicity in the colon 26 mouse study; assay type: in vivo, CDF-1 female mice
Method: (§1) To CDF-1 female mice of 9-week age, 1×10^6 cells of mouse colonic cancer colon 26 were implanted respectively under the skin of the axillary fossa. The medicine was administered to the tail vein three times from six days after the administration when the tumor was detected by finger touch at intervals of four days. On the 17th to 19th days from the implantation,the tumors were enucleated and weighed. The antineoplastic effect is represented by the tumor growth inhibition rate (TGI=(1-T/C)×100) derived from the ratio (T/C) of the average tumor weight (T) of the medicine-administered group to the average tumor weight (C) of the control group.

[3] = tested on: mouse colonic cancer colon 26; assay: Antineoplastic effect against mouse colonic cancer colon 26 (Experimental Example 2); assay type: in vivo, CDF-1 female mice; settings: for TGI (tumor growth inhibition rate): colon 26, tail vein, 3 times at 4-day intervals, day 17-19; for antineoplastic activity against the growth of advanced colonic cancer 26 tumor: mice, intravenous administration
Method: as §1

acetylcholine esterase = assay: Inhibition of acetylcholine esterase reaction (Experimental Example 3); assay type: biochemical
Method: The absorbance was measured at 412 nm. The reaction rate and the acetylthiocholine iodide concentration was plotted according to Lineweaver-Burk method to obtain Vmax, and Km. Then, the inhibition constant (Ki) was calculated from the inhibitor concentration.

sarcoma 180 = assay: Antineoplastic effect against mouse sarcoma 180 tumor (Experimental Example 1); assay type: in vivo, ICR female mice; settings: sarcoma 180, tail vein, 3 times at 4-day intervals, day 14
Method: To ICR female mice of 5-week age, 5×10^6 cells of sarcoma 180 were implanted respectively under the skin of the axillary fossa. The medicine was administered to the tail vein three times from the day next to the administration at intervals of four days. After 14 days from the implantation, the tumors were enucleated and weighed. The antineoplastic effect is represented by the tumor growth inhibition rate (TGI=(1-T/C)×100) derived from the ratio (T/C) of the average tumor weight (T) of the medicine-administered group to the average tumor weight (C) of the control group.

nucleic acid synthesis = settings: background; cited from earlier work

Sequence of acetylcholine esterase (P22303 32-614): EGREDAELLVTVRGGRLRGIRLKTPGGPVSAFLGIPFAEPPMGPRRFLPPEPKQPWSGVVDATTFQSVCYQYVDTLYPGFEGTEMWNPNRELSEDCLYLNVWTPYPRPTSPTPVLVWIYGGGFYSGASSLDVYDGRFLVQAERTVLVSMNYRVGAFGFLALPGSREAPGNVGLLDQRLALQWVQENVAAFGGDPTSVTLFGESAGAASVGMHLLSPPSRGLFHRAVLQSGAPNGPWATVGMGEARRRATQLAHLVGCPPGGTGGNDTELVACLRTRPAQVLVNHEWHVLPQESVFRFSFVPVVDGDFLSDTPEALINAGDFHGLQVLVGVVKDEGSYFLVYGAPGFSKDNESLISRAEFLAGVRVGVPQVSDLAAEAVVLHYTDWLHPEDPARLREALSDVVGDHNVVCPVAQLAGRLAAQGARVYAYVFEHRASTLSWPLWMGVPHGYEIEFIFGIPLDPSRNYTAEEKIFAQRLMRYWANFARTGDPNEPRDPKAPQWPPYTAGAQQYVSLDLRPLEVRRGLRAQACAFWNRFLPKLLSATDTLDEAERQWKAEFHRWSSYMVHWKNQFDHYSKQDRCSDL

Structure (SMILES)	TGI (tumor growth inhibition rate) ([3]; total dose 30 mg/kg)	antineoplastic activity against the growth of advanced colonic cancer 26 tumor [3]	TGI (tumor growth inhibition rate) ([3]; total dose 60 mg/kg)	TGI (tumor growth inhibition rate) ([3]; total dose 120 mg/kg)	TGI (tumor growth inhibition rate) (sarcoma 180; total dose 60 mg/kg)	TGI (tumor growth inhibition rate) (sarcoma 180; total dose 120 mg/kg)	also measured
CCC1(OC(=O)CN)C(=O)OCc2c1cc1n(c2=O)Cc2cc3cc4c(cc3nc2-1)OCO4 (stereo not drawn) [10,11-methylenedioxy-20-O-glycylcamptothecin]	–	–	–	–	–	–	toxicity / side effects ([1]; known camptothecin derivatives, background): highly toxic
CC[C@@]1(OC(=O)CN)C(=O)OCc2c1cc1n(c2=O)Cc2cc3cc4c(cc3nc2-1)OCO4.Cl [Compound 1, 10,11-Methylenedioxy-20-O-glycylcamptothecin hydrochloride]	44%	not inhibited	–	–	–	–	Toxicity ([2]; at a dose of as low as 20 mg/kg): toxic; Toxicity ([2]; colon 26 mice, tail vein, total dose 60 mg/kg): Toxic; TGI (tumor growth inhibition rate) ([3]; total dose 7.5 mg/kg): 21%; TGI (tumor growth inhibition rate) ([3]; total dose 15 mg/kg): 22%
CCOc1ccc2nc3c(c(CC)c2c1)Cn1c-3cc2c(c1=O)COC(=O)C2(CCF)OC(=O)CN (stereo not drawn) [Example 1, 4-[(aminomethylcarbonyl)oxy]-9-ethoxy-11-ethyl-4-(2-fluoroethyl)-1H-pyrano[3',4':6,7]indolidino[1,2-b]quinoline-3,14(4H,12H)-dione hydrochloride]	28%	–	59%	81%	83%	91%	TGI (tumor growth inhibition rate) ([3]; total dose 180 mg/kg): 82%; Ki (acetylcholine esterase): 20 to 40 µM
CCc1c2c(nc3ccc(OC(=O)N4CCC(N5CCCCC5)CC4)cc13)-c1cc3c(c(=O)n1C2)COC(=O)[C@]3(O)CC [Irinotecan hydrochloride, irinotecan hydrochloride]	8%	not inhibited	28%	34%	75%	74%	Toxicity ([2]; colon 26 mice, tail vein, total dose 120 mg/kg): Toxic; TGI (tumor growth inhibition rate) (sarcoma 180; total dose 30 mg/kg): 44%
CC[C@@]1(O)C(=O)OCc2c1cc1n(c2=O)Cc2cc3ccccc3nc2-1 [camptothecin, Camptothecin]	–	–	–	–	–	–	clinical toxicity ([1]; clinical tests in the United States): discontinued because of its toxicity; antineoplastic activity by inhibiting nucleic acid synthesis (nucleic acid synthesis): exhibit antineoplastic activity by inhibiting nucleic acid synthesis
